Reference: paper PMC12848680, “Microbial Cross-Talk: Unlocking the Cytochalasin Diversity from a Termite-Associated Xylaria” (JACS Au, 2025)
In brackets after ≈: the same amount, converted by molar mass. Like-named read-outs stand apart in the source and are kept apart here.

What was measured:
in vitro [1] = assay type: in vitro ADME, mouse; conditions: for microsomal CLint: C57BL/6, mouse, microsomes; for half-life: mouse, 1 μM compound, 0.5 mg/mL pooled C57BL/6 microsomes, read-out: Mouse liver microsome t1/2
Method: Assays in liver microsomes: For metabolic stability, the compound (1 μM) was incubated with 0.5 mg/mL pooled mouse (C57BL/6) microsomes (Xenotech, Kansas City, USA), 2 mM NADPH, 10 mM MgCl2 at 37 °C for 120 min on a microplate shaker. The metabolic stability of testosterone, verapamil and ketoconazole were determined in parallel to confirm the enzymatic activity of mouse/rat liver microsomes. The incubation was stopped after defined time points by precipitation of aliquots of the incubation mixture with 2 volumes of cold internal standard solution (15 nM diphenhydramine in 10% methanol/acetonitrile). Samples were stored on ice until the end of the incubation and precipitated protein was removed by centrifugation (15 min, 4 °C, and 4,000 g). Concentration of the remaining test compound at the different time points was analyzed by HPLC-MS/MS (Vanquish Flex coupled to a TSQ Altis Plus, Thermo Fisher, Dreieich, Germany) and used to determine half-life (t1/2). […]

in vitro [2] = assay type: in vitro ADME, mouse; conditions: for half-life at 1 μM: 1 μM compound, pooled CD-1 mouse plasma, read-out: Mouse plasma t1/2
Method: Plasma stability assays: To determine stability in plasma, the compound (1 μM) was incubated with pooled CD-1 mouse plasma (Neo Biotech, Nanterre, France). Samples were taken by mixing aliquots with 4 volumes of cold internal standard solution (12.5 nM diphenhydramine in 10% methanol/acetonitrile). The plasma stability of procain, propantheline and diltiazem were determined in parallel to confirm the enzymatic activity. Samples were stored on ice until the end of the incubation and precipitated protein was removed by centrifugation (15 min, 4 °C, 4,000 g, two centrifugation steps). Concentration of the remaining test compound at the different time points was analyzed by HPLC-MS/MS (Vanquish Flex coupled to a TSQ Altis Plus, Thermo Fisher, Dreieich, Germany). […]

[3] = test system: CHO-K1 (chinese hamster ovary cells); assay: Cytotoxicity assay (MTT, 5 d) on CHO-K1; assay type: cell-based; conditions: Cricetulus griseus, CHO-K1, 120 h
Method: (§1) Cytotoxicity assay: A549 (human lung carcinoma cell line; ACC 107) and CHO-K1 (chinese hamster ovary cells; ACC 110) were obtained from the German Collection of Microorganisms and Cell Cultures (DSMZ) and cultured under the conditions recommended by the depositor. Cells were propagated in Dulbeccos’s Modified Eagle’s Medium (DMEM) and Ham’s F12 medium, respectively, supplemented with 10% fetal bovine serum (FBS), and seeded at 6×10^3 cells per well of 96-well plates in 120 μL of complete medium. After 2 h of equilibration (37 °C, 5% CO2), the cells were treated with a serial dilution of cytochalasins in 60 µL growth medium. Cytochalasins, doxorubicin as reference, as well as the solvent control were tested as duplicates in two independent experiments. After 5 d of incubation (37 °C, 5% CO2), a total of 20 μL of 5 mg/ml MTT (thiazolyl blue tetrazolium bromide) in phosphate -buffered saline (PBS) were added to each well […]
(§2) and the cells were further incubated for 2 h at 37 °C before the supernatant was discarded.
(§3) Subsequently, the cells were washed with 100 μL of PBS and treated with 100 μl of 2-propanol/10 N HCl (250:1) to dissolve formazan granules. Cell viability was measured as percentage relative to the respective solvent control by measuring the absorbance at 570 nm using a microplate reader (Tecan Infinite M200Pro). GraphPad Prism (version 10.0.3, GraphPad, Boston, MA, USA) was used for sigmoidal curve fitting to determine the IC50 values.

[4] = test system: Staphylococcus aureus Newman; assay: Antibacterial activity against S. aureus Newman; assay type: cell-based; conditions: Table S22
[5] = test system: A549 (human lung carcinoma cell line); assay: Cytotoxicity assay (MTT, 5 d) on A549; assay type: cell-based; conditions: for IC50: Homo sapiens, A549, 120 h, MTT, 5 d incubation; for Cytotoxic activity against A549 (in words): positive control doxorubicin
Method: as §1, §2, §3

E. coli ΔacrB (JW0451-2) = assay: Antibacterial activity against E. coli ΔacrB; assay type: cell-based; conditions: Escherichia coli, read-out: E. coli ΔacrB (JW0451-2) MIC
[6] = Table S22, intrinsic clearance calculated from microsomal metabolism data
[7] = Table 1, intrinsic clearance from microsomal metabolism data

| Structure (SMILES) | microsomal CLint (in vitro [1]; [6]) [µL/min/mg] | half-life (in vitro [1]; Table S22) [min] | half-life at 1 μM (in vitro [2]; Table S22) [min] | IC50 ([3]; Table S22, 5 d incubation) [µg/mL] | MIC [4] [µg/mL] | IC50 ([5]; Table S22) [µg/mL] | MIC (E. coli ΔacrB (JW0451-2)) [µg/mL] | microsomal CLint (in vitro [1]; [7]) [µL/min/mg] | half-life (in vitro [1]; Table 1, 120 min) [min] | half-life at 1 μM (in vitro [2]; Table 1) [min] | IC50 ([3]; Table 1, 5 d incubation) [µg/mL] | IC50 ([5]; Table 1) [µg/mL] | Cytotoxic activity against A549 (in words) [5] | Compound remaining in mouse plasma (in vitro [2]; Table 1, at 240 min) [%] | Compound remaining in mouse plasma (in vitro [2]; Table S22, at 4 h) |
| --- | --- | --- | --- | --- | --- | --- | --- | --- | --- | --- | --- | --- | --- | --- | --- |
| CC1CC=CC2C3OC3(C)C(C)C3C(Cc4ccccc4)NC(=O)C23C(O)C2OC2C(C)C1=O (centres unmarked) [Compound 1, deacetyl-18-desoxy-19,20-epoxycytochalasin Q] | 102 ± 13 | 13.8 ± 1.8 | > 240 | 1.21 ± 0.31 (≈ 2.6 µM) | > 64 | 0.32 ± 0.1 (≈ 0.687 µM) | > 64 |  |  |  |  |  |  |  |  |
| CC(=O)O[C@@H]1/C=C/[C@@](C)(O)C(=O)[C@@H](C)C/C=C/[C@H]2[C@H](O)C(C)=C(C)[C@H]3[C@H](Cc4ccccc4)NC(=O)[C@@]123 [Compound 2, cytochalasin C] | 88 ± 7 | 15.8 ± 1.2 | > 240 | 1.48 ± 1.38 (≈ 2.92 µM) | > 64 | 3.34 ± 0.92 (≈ 6.58 µM) | > 64 |  |  |  |  |  |  |  |  |
| CC(=O)OC1C2OC2C(C)(O)C(=O)C(C)CC=CC2C(O)C(C)=C(C)C3C(Cc4ccccc4)NC(=O)C213 (centres unmarked) [Compound 3, 19,20-epoxycytochalasin C] |  |  |  |  | > 64 |  | > 64 | 31.6 ± 1.4 | 43.9 ± 2 | > 240 | 0.51 ± 0.27 (≈ 0.974 µM) | 0.34 ± 0.13 (≈ 0.649 µM) | comparable to the positive control |  |  |
| CC1=C(C)C2C(Cc3ccccc3)NC(=O)C23C(O)C2OC2C(C)(O)C(=O)C(C)CC=CC3C1O (centres unmarked) [Compound 4, deacetyl-19,20-epoxycytochalasin C] | 26.2 ± 0.1 | 53.1 ± 0.2 | > 240 | 4.63 ± 4.23 (≈ 9.61 µM) | > 64 | 1.07 (≈ 2.22 µM) | > 64 |  |  |  |  |  |  |  |  |
| CC(=O)OC1C2OC2C(C)C(=O)C(C)CC=CC2C(O)C(C)=C(C)C3C(Cc4ccccc4)NC(=O)C213 (centres unmarked) [Compound 5, 18-desoxy-19,20-epoxycytochalasin C] |  |  |  |  | > 64 |  | > 64 | 132 ± 38 | 11 ± 3 | > 240 | 9.88 ± 7.69 (≈ 19.5 µM) | 0.87 ± 1.38 (≈ 1.71 µM) | comparable to the positive control | 74 ± 5 | >240 (74 ± 5% at 4 h) |
| CC(=O)OC1C2OC2C(C)(O)C(=O)C(C)CC=CC2C3OC3(C)C(C)C3C(Cc4ccccc4)NC(=O)C213 (centres unmarked) [Compound 6, 19,20-epoxycytochalasin Q] | 97 ± 24 | 15 ± 4 | > 240 | 0.72 ± 0.3 (≈ 1.38 µM) | > 64 | 0.14 ± 0.02 (≈ 0.267 µM) | > 64 |  |  |  |  |  |  |  |  |
| CC1CC=CC2C3OC3(C)C(C)C3C(Cc4ccccc4)NC(=O)C23C(O)C2OC2C(C)(O)C1=O (centres unmarked) [Compound 7, deacetyl-19,20-epoxycytochalasin Q] | 14 ± 3 | 102 ± 24 | > 240 | 3.78 ± 0.3 (≈ 7.85 µM) | > 64 | 2.56 ± 0.94 (≈ 5.32 µM) | > 64 |  |  |  |  |  |  |  |  |
| CC(=O)OC1C2OC2C(C)(O)C(=O)C(C)CC2OC2C2C3OC3(C)C(C)C3C(Cc4ccccc4)NC(=O)C132 (centres unmarked) [Compound 8, 19,20-epoxycytochalasin R] | 37 ± 4 | 38 ± 4 | > 240 | 17.3 ± 8.94 (≈ 32 µM) | > 64 | > 37 | > 64 |  |  |  |  |  |  |  |  |
| C=C1C(C)C2C(Cc3ccccc3)NC(=O)C23C(C=CCC(C)C(=O)C(C)(O)C2OC2C3OC(C)=O)C1O (centres unmarked) [Compound 9, 19,20-epoxycytochalasin D] |  |  |  |  | > 64 |  | > 64 | 35 ± 3 | 40 ± 3.7 | > 240 | 10.3 ± 5.07 (≈ 19.8 µM) |  |  |  |  |
| CC(=O)OC1C2OC2C(C)(O)C(=O)C(C)CC=CC2C(O)C(C)=C(C)C3C(Cc4cccc(Cl)c4)NC(=O)C213 (centres unmarked) [Compound 11, m-chloro-19,20-epoxycytochalasin C] |  | 26.4 ± 1.2 |  |  | > 64 |  | > 64 | 52.7 ± 2.5 |  | > 240 | 0.67 ± 0.53 (≈ 1.2 µM) | 0.04 (≈ 0.0717 µM) | lower nanomolar activities |  |  |
| CC1=C(C)C2C(Cc3cccc(Cl)c3)NC(=O)C23C(O)C2OC2C(C)(O)C(=O)C(C)CC=CC3C1O (centres unmarked) [Compound 12, m-chloro-deacetyl-19,20-epoxycytochalasin C] | 39 ± 12 | 36 ± 10 | > 240 | 2.02 ± 1.2 (≈ 3.91 µM) | > 64 | > 37 | > 64 |  |  |  |  |  |  |  |  |
| CC(=O)O[C@@H]1/C=C/[C@@](C)(O)C(=O)[C@@H](C)C/C=C/[C@H]2[C@@H]3O[C@]3(C)[C@@H](C)[C@H]3[C@H](Cc4cccc(Cl)c4)NC(=O)[C@@]312 [Compound 13, m-chloro-cytochalasin Q] | 95 ± 15 | 15 ± 3 | > 240 | 0.41 ± 0.06 (≈ 0.756 µM) | > 64 | 0.14 ± 0.02 (≈ 0.258 µM) | > 64 |  |  |  |  |  |  |  |  |
| CC(=O)OC1C2OC2C(C)(O)C(=O)C(C)CC=CC2C3OC3(C)C(C)C3C(Cc4cccc(Cl)c4)NC(=O)C213 (centres unmarked) [Compound 14, m-chloro-19,20-epoxycytochalasin Q] | 45.7 ± 1.6 | 30.4 ± 1.1 | > 240 | 0.69 ± 0.07 (≈ 1.24 µM) | > 64 | 0.11 ± 0.05 (≈ 0.197 µM) | > 64 |  |  |  |  |  |  |  |  |
| CC1CC=CC2C3OC3(C)C(C)C3C(Cc4cccc(Cl)c4)NC(=O)C23C(O)C2OC2C(C)(O)C1=O (centres unmarked) [Compound 15, m-chloro-deacetyl-19,20-epoxycytochalasin Q] |  |  |  |  | > 64 | 0.08 ± 0.03 (≈ 0.155 µM) | > 64 | 39 ± 3 | 36 ± 3 | > 240 | 0.81 ± 0.1 (≈ 1.57 µM) | 0.04 ± 0.03 (≈ 0.0775 µM) | lower nanomolar activities |  |  |
| CC(=O)OC1C2OC2C(C)C(=O)C(C)CC=CC2C3OC3(C)C(C)C3C(Cc4cccc(Cl)c4)NC(=O)C213 (centres unmarked) [Compound 16, m-chloro-18-desoxy-19,20-epoxycytochalasin Q] |  |  |  | 3.13 ± 2.94 (≈ 5.77 µM) | > 64 | 1.02 ± 0.13 (≈ 1.88 µM) | > 64 | 984 ± 105 | 1.4 ± 0.1 | > 240 | 0.41 ± 0.1 (≈ 0.756 µM) | 0.08 ± 0.02 (≈ 0.148 µM) |  |  |  |
| CC1=C(C)C2C(Cc3cccc(Br)c3)NC(=O)C23C(O)C2OC2C(C)(O)C(=O)C(C)CC=CC3C1O (centres unmarked) [Compound 17, m-bromo-deacetyl-19,20-epoxycytochalasin C] |  |  |  |  | > 64 | 0.19 ± 0.02 (≈ 0.339 µM) | > 64 | 43 ± 4 | 32 ± 3 | > 240 | 0.49 ± 0.12 (≈ 0.874 µM) | 0.14 ± 0.02 (≈ 0.25 µM) | lower nanomolar activities |  |  |
| CC(=O)OC1C2OC2C(C)(O)C(=O)C(C)CC=CC2C3OC3(C)C(C)C3C(Cc4cccc(Br)c4)NC(=O)C213 (centres unmarked) [Compound 18, m-bromo-19,20-epoxycytochalasin Q] |  |  |  |  | > 64 | 0.31 ± 0.01 (≈ 0.515 µM) | > 64 | 77 ± 19 | 19 ± 4 | > 240 | 0.94 ± 0.21 (≈ 1.56 µM) | 0.19 ± 0.01 (≈ 0.315 µM) |  |  |  |
| COc1cccc2c1C(=O)c1c(O)c3c(c(O)c1C2=O)C[C@@](O)(C(=O)CO)C[C@@H]3O[C@H]1C[C@H](N)[C@H](O)[C@H](C)O1 [doxorubicin, reference compound] |  |  |  |  |  |  |  |  |  |  |  | 0.3 (≈ 0.552 µM) |  |  |  |
